From PMC12073785, “Design, Synthesis and Biological Evaluation of 3-Hydrazonoindolin-2-one Derivatives as Novel HIV-1 RNase H Inhibitors” (Molecules, 2025) come the findings set out here.

As usually defined, the EC50 is the concentration at which the effect is half-maximal. One may read the CC50 as the concentration that lowers cell viability or growth by half. The term Ki denotes a measure of affinity in units of concentration, obtained from inhibition or displacement. A higher Ki goes with weaker binding.

The structures appear in SMILES notation. Some results are limits rather than exact numbers.

One data set relates to HIV-1 (strain IIIB). As to the kind of experiment: Anti-HIV-1 (strain IIIB) activity in MT-4 cells, MTT assay. The format is cell-based. To be noted: for EC50: protection of MT-4 cells against HIV-induced cytopathogenicity by 50%; for SI, selectivity index: ratio CC50/EC50, MT-4 cells. How it is done:
(§1) The anti-HIV-1 (strain IIIB) activity evaluation in MT-4 cells was conducted using an optimized MTT assay. The cell lines were obtained from the laboratory (Prof. Erik De Clercq, Rega Institute for Medical Research, KU Leuven, Herestraat 49, Leuven, Belgium). Compounds were serially diluted (5-fold increments, starting from 10× concentration) and dispensed into 96-well plates (25 µL/well) via an automated Biomek 3000 workstation (Beckman Instruments, Fullerton, CA, USA). Parallel experimental groups included virus-infected (50 µL HIV inoculum, 100–300 TCID50) and mock-infected controls (50 µL culture medium). MT-4 cells were centrifuged (220× g, 5 min), resuspended to 6 × 10⁵ cells/mL, and seeded (50 µL/well). After a 5-day incubation, cell viability was quantified by measuring mitochondrial dehydrogenase-mediated MTT-to-formazan conversion using dual-wavelength spectrophotometry (540 nm primary, 690 nm reference). The 50% cytotoxic concentration (CC50) was calculated from triplicate median absorbance values, representing the compound concentration reducing mock-infected cell viability by 50%.
A general note: Tetrazolium dyes change colour on reduction, which living cells bring about.

The test system of another data set is MT-4 cells. Kind of data set: Cytotoxicity in mock-infected MT-4 cells, MTT assay. The format is cell-based. How it is done: as §1
Data set [1] has as its target T1, HIV-1 RT-associated RNase H (Human immunodeficiency virus type 1 group M subtype B, UniProt P04585).
T1 construct: HIV-1 group M subtype B heterodimeric reverse transcriptase (RT) was expressed and purified; made in house; host or cells: Escherichia coli strain M15, p6HRT-Prot expression vector
Kind of data set: HIV-1 RT-associated RNase H inhibition (fluorescent RNA/DNA hybrid). To be noted: for IC50: HIV-1 RT wt, average of three independent determinations, read-out: IC50, concentration required to inhibit 50% of in vitro RNase H activity; for Fold increase in RNase H inhibitory potency compared to compound 6a: IC50 ratio versus 6a. Type of data set: biochemical. How it is done: The tested compounds were initially dissolved in dimethyl sulfoxide (DMSO) at a concentration of 50 mM and subsequently serially diluted (ratio 1:3). The compounds were tested as previously described.
Briefly, a reaction mixture containing 50 mM Tris-HCl buffer pH 7.8, 6 mM MgCl2, 1 mM dithiothreitol (DTT), 80 mM KCl, 0.25 μM hybrid RNA/DNA. 25 μM of RNA/DNA hybrid 5′-GAUCUGAGCCUGGAGCU-Fluorescin-3′ (HPLC, dry, QC: Mass Check), 5′-Dabcyl-AGCTCCCAGGCTCAGATC-3′ (HPLC, dry, QC: Mass Check), and increasing concentrations of inhibitors was diluted in DMSO. The activity of the RNase H function associated with HIV-1 RT was quantified by measuring the linear portion of the dose–response curve. The reaction mixture was incubated at 37 °C for 10 min with a Victor Nivo 5 multilabel plate reader (model 1420-051, PerkinElmer, Waltham, MA, USA), and fluorescence signals were recorded at excitation/emission wavelengths of 490/528 nm. Based on the obtained fluorescence data, the inhibitory concentration 50 (IC50) of the target compounds was calculated by interpolation on a dose–response curve. Results are reported as average and standard deviation of at least two independent replicates in triplicate.

Data set [2] can be described thus: Cytotoxicity in mock-infected MT-4 cells, MTT assay. Type of data set: cell-based. To be noted: human, mock-infected MT-4 cells; reduction of normal uninfected MT-4 cell viability by 50%. How it is done:
as §1

Data set [3] addresses T1, HIV-1 RT-associated RNase H. As to the kind of experiment: Kinetic analysis of RNase H inhibition, competition with RNA/DNA substrate. To be noted: for Mode of inhibition: Michaelis Menten and Lineweaver-Burk plots; for Ki: competition with RNA substrate. The format is biochemical. The text has this: Based on the docking binding predictions, compound 6t and compound 11a were chosen for further characterization. To study the interaction between the chemical compounds and the enzyme in complex with the substrate, we evaluated the competition of compounds 6a and 11a with the RNA substrate (Figure 5). […] Given the results obtained, it is hypothesized that the binding between the inhibitor and the RT protein may modulate the interaction between the enzyme and the RNA substrate, resulting in an increased apparent KM and decreased apparent Vmax when increasing the concentration of the inhibitor.
Kinetic analysis of the DNA-polymerase independent RNase H activity was performed as already reported. Briefly, a reaction mixture containing 50 mM Tris-HCl buffer pH 7.8, 6 mM MgCl2, 1 mM DTT, 80 mM KCl, and increasing concentrations of hybrid RNA/DNA 5′-GAUCUGAGCCUGGGAGCU-Fluorescin-3′/5′-Dabcyl-AGCTCCCAGGCTCAGATC-3′ was incubated at 37 °C for 10 min with a Victor Nivo 5 multilabel plate reader (model 1420-051, PerkinElmer, Waltham, MA, USA), and fluorescence signals were recorded at excitation/emission wavelengths of 490/528 nm. Results were represented according to Michaelis Menten and Lineaweaver–Burke plots.

A further data set has as its system HIV-1 RT R448A. As to the kind of experiment: RNase H inhibition with HIV-1 RT R448A mutant versus RT wt. Type of data set: biochemical. To be noted: HIV-1 RT R448A versus RT wt. The text has this:
Furthermore, to validate the docking binding prediction of the compounds in the active site of the RT, and the interaction with amino acid residue R448, which was predicted to stabilize the binding of the compounds through a hydrogen bond, we evaluated the activity of compounds 6t and 11a in parallel against the RT wt enzyme and the HIV-1 RT R448A mutant (Figure 6). […] The results confirmed the importance of residue R448 in the binding of inhibitors and validated the predicted binding site to the enzyme; indeed, the less pronounced effect of R448A mutation on 11a inhibitory activity might be explained with the additional hydrogen bound predicted to form between 11a and amino acid Q475 (Figure 6).

Setting [4] is: Human immunodeficiency virus 1, IIIB, MT4.

In the data set on HIV-1 (strain IIIB), `O=C1Nc2ccc(Cl)cc2[C@@](C#CC2CC2)(C(F)(F)F)O1` [EFV, reference compound] displayed an EC50 of 0.003 µM. Besides, the CC50 in the data set on MT-4 cells was over 4.59 µM.

As to `O=C1Nc2cc(Cl)c(Cl)cc2C1=NNc1cc(=O)[nH]c(=O)[nH]1` [Compound 6t, 6-(2-(5,6-Dichloro-2-oxoindolin-3-ylidene)hydrazineyl)pyrimidine-2,4(1H,3H)-dione], in data set [1], the IC50 was 7.85 ± 0.55 µM and the “Fold increase in RNase H inhibitory potency compared to compound 6a” value is on record as about 10 fold. In the data set on HIV-1 (strain IIIB) (setting [4]), this compound yielded an EC50 of 110 µM. Further, the “SI, selectivity index” value with HIV-1 (strain IIIB) came out at 3. The compound further displayed a CC50 at 5 days in data set [2] of 294 µM. For the same compound, in data set [3], the Mode of inhibition result is listed as “mixed model inhibitor” and the Ki amounted to 2.31 µM. Also, in data set [3] (inhibitor 4 μM), the “Vmax (apparent)” value was found to be 124.2. In data set [3] (inhibitor 12 μM), the “Vmax (apparent)” value is 104.6. In the data set with HIV-1 RT R448A, the “Shift of the inhibition curve (loss of potency)” value is recorded as “four-fold”.

For `Cc1ccnc2c1NC(=O)c1cccnc1N2C1CC1` [NVP, reference compound], the EC50 with HIV-1 (strain IIIB) stood at 0.19 µM. In addition, the CC50 in the data set with MT-4 cells was over 15 µM.

In the case of `O=C1Nc2cc(Cl)c(Cl)cc2C1=NNc1c[nH]c(=O)[nH]c1=O` [Compound 11a, 5-(2-(5,6-Dichloro-2-oxoindolin-3-ylidene)hydrazineyl)pyrimidine-2,4(1H,3H)-dione], the IC50 in data set [1] was determined as 1.9 ± 0.01 µM. Besides, the “Fold increase in RNase H inhibitory potency compared to compound 6a” value in data set [1] worked out at 40 fold. The “Fold increase in RNase H inhibitory potency compared to compound 6t” value in data set [1] (IC50 ratio versus 6t) is reported as 4 fold. The EC50 in the data set on HIV-1 (strain IIIB) (setting [4]) was determined as 39 µM. Further, the “SI, selectivity index” value in the data set with HIV-1 (strain IIIB) is on record as 10. The cytotoxic concentration (CC50) at 5 days in data set [2] was 402 µM. Moreover, the Mode of inhibition result in data set [3] is “mixed model inhibitor”. In data set [3], this compound registered a Ki of 0.55 µM. Besides, the figures for the “Vmax (apparent)” value in data set [3] (inhibitor 1 μM), in data set [3] (inhibitor 2 μM) and in data set [3] (inhibitor 4 μM) were 105.8, 98.24 and 41.29, respectively. Further, in the data set with HIV-1 RT R448A, the “Shift of the inhibition curve (loss of potency)” value is listed as “two-fold”.
